PubChem BioAssay AID488814 (NMMLSC, 2010)

System: S. cerevisiae RPL19A-GFP strain, flow cytometry GFP, 3 h
Assay: RPL19A-GFP expression changes in yeast, dose response, cell-based, cherry pick 3, SAR, flow cytometry GFP, multiplex (AID 488814)

Compound	EC50
Cc1ccc2c(Cl)cc(Cl)c(O)c2n1	14.7 µM
CC1=NNC(=O)/C1=C\c1cn(-c2ccccc2)nc1-c1ccc(F)cc1	15.3 µM
Cc1ccc(NN2C(=O)C=C(c3ccccc3)C2=O)cc1	0.876 µM
